Source: US8026359B2, “Fungicidal heterocyclic amines” (E.I. du Pont de Nemours and Company, priority 2007, dated 2011)

Assays:
Assay type in all cases: in vivo
[1] = system: Phytophthora infestans; settings: 200 ppm; 100 = 100% disease control, 0 = no control relative to controls
[2] = system: Sclerotinia sclerotiorum; assay: Test G: cucumber white mold, preventive spray on cucumber seedlings; settings: 200 ppm; 100 = 100% disease control, 0 = no control relative to controls
Excerpt: (§1) General protocol for preparing test suspensions for Tests A-R: The test compounds were first dissolved in acetone in an amount equal to 3% of the final volume and then suspended at the desired concentration (in ppm) in acetone and purified water (50/50 mix) containing 250 ppm of the surfactant Trem® 014 (polyhydric alcohol esters). The resulting test suspensions were then used in tests A-R. In Tests A-M, compounds were sprayed as a 200 ppm test suspension (equivalent to a rate of 500 g/ha) or as a 40 ppm test suspension to the point of runoff on the test plants. In Tests N-R, compounds were sprayed as a 100 g/ha test suspension (equivalent to a rate of 100 ppm) on the test plants at an application volume of 1000 L/ha. The test suspension was sprayed to the point of run-off on cucumber seedlings.

[3] = system: Rhizoctonia oryzae; assay: Test J: turf brown patch, preventive spray on creeping bent grass seedlings; settings: 200 ppm; 100 = 100% disease control, 0 = no control relative to controls
Excerpt: as §1, with “creeping bent grass” for “cucumber”

[4] = system: Pythium aphanidermatum; assay: Test M: bluegrass pythium blight, preventive spray on bluegrass seedlings; settings: 200 ppm; 100 = 100% disease control, 0 = no control relative to controls
[5] = system: Colletotrichum orbiculare; assay: Test I: cucumber Colletotrichum anthracnose, preventive spray on cucumber seedlings; settings: 100 = 100% disease control, 0 = no control relative to controls
Procedure, shortened: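 Preventive foliar spray to run-off on cucumber seedlings, at 200 ppm (stated as equal to 500 g/ha) or 40 ppm. Test suspensions were made in acetone/water 50/50 containing 250 ppm Trem 014, after first dissolving compound in acetone at 3% of final volume.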

[6] = system: Puccinia recondita f. sp. tritici; assay: Test B: wheat leaf rust, preventive spray on wheat seedlings; settings: 200 ppm, 100 = 100% disease control, 0 = no control relative to controls
Procedure, shortened: (§2)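 Spray suspensions: compound in acetone at 3% of final volume, diluted into acetone:water 1:1 containing 250 ppm polyhydric alcohol ester surfactant. Applied to run-off at 40 or 200 ppm; the higher level corresponds to 500 g/ha.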

[7] = system: Botrytis cinerea; assay: Test F: tomato Botrytis, preventive spray on tomato seedlings; settings: 200 ppm, 100 = 100% disease control, 0 = no control relative to controls
Procedure, shortened: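 Preventive run-off spray onto tomato seedlings at 200 ppm (equivalent to 500 g/ha) or 40 ppm. Suspensions: compound predissolved in acetone at 3% of final volume, then taken up in acetone/purified water 50/50 containing 250 ppm Trem® 014 surfactant.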

[8] = system: Plasmopara viticola; assay: Test L: grape downy mildew, spray after inoculation of grape seedlings; settings: 200 ppm; 100 = 100% disease control, 0 = no control relative to controls
Excerpt: as §1, with “L/ha. Grape seedlings were inoculated with a spore suspension of Plasmopara viticola (the causal agent of grape downy mildew) and incubated in a saturated atmosphere at 20° C. for 24 h. After a short drying period, the” for “L/ha. The”, “on the grape seedlings and then moved to a growth chamber at 20° C. for 6 days, after which time the test units were placed back into a saturated atmosphere at 20° C. for 24 h. Upon removal, disease ratings were made.” for “on cucumber seedlings.”

[9] = system: Septoria tritici; assay: Test D: wheat leaf blotch, preventive spray on wheat seedlings; settings: 200 ppm, 100 = 100% disease control, 0 = no control relative to controls
Procedure, shortened: as §2

[10] = system: Septoria nodorum; assay: Test C: wheat glume blotch, preventive spray on wheat seedlings; settings: 200 ppm, 100 = 100% disease control, 0 = no control relative to controls
Procedure, shortened: as §2

[11] = system: Fusarium graminearum; assay: whole plant or invertebrate
[12] = system: Erysiphe graminis f. sp. tritici; assay: Test A: wheat powdery mildew, preventive spray on wheat seedlings; settings: 200 ppm, 100 = 100% disease control, 0 = no control relative to controls
Procedure, shortened: as §2

Row | Structure (SMILES) | Test K disease control rating [1] | Test G disease control rating [2] | Test J disease control rating [3] | Test M disease control rating [4] | pest or weed control at 200 ppm ([5]; Colletotrichum orbiculare, 144 h, read-out: Test I disease control rating) | pest or weed control at 200 ppm ([6]; Puccinia recondita, 192 h, read-out: Test B disease control rating) | pest or weed control at 200 ppm ([7]; Botrytis cinerea, 120 h, read-out: Test F disease control rating) | Test L disease control rating [8] | pest or weed control at 200 ppm ([9]; Zymoseptoria tritici, 504 h, read-out: Test D disease control rating) | pest or weed control at 200 ppm ([10]; Parastagonospora nodorum, 216 h, read-out: Test C disease control rating) | pest or weed control at 200 ppm ([11]; Fusarium graminearum, in Triticum aestivum, 192 h, read-out: Test E disease control rating) | pest or weed control at 200 ppm ([12]; Blumeria graminis, 192 h, read-out: Test A disease control rating) | Test I disease control rating ([5]; 200 ppm) | Test B disease control rating [6] | Test F disease control rating [7] | Test D disease control rating [9] | Test C disease control rating [10] | Test E disease control rating ([11]; 200 ppm, 100 = 100% disease control, 0 = no control relative to controls) | Test A disease control rating [12]
1 | COCC(C)Nc1nccc(-c2ccnc(Nc3cccc(Cl)c3)c2)n1 (stereo not drawn) [Compound 40, 4-[2-[(3-chlorophenyl)amino]-4-pyridinyl]-N-(2-methoxy-1-methylethyl)-2-pyrimidinamine] | 0% | 83% | 0% | 0% | 84% | 90% | 99% | 0% | 27% | 99% | 48% | 63% |  |  |  |  |  |  | 
2 | COCC(C)Nc1nccc(-c2ccnc(Nc3cccc(F)c3)c2)n1 (stereo not drawn) [Compound 41] | 0% | 94% | 34% | 0% |  |  |  | 0% |  |  |  |  | 54% | 98% | 96% | 15% | 99% | 45% | 57%
